Assay results reported in US20130065227A1, “METHODS OF INCREASING MACROPINOCYTOSIS IN CANCER CELLS” (priority 2010, published 2013).

What was measured:
Hs27 = test: Stimulation of macropinocytosis (dextran uptake); assay type: cell-based, human; conditions: 10 μM for 24, 48, or 72 h, flow cytometry
Experimental: (Panel A) DU145 cells were treated with 10 μM tAS1411 or 10 μM tCRO or no oligonucleotide in complete DMEM medium at 37° C. for the time indicated. After treatment, cell medium was changed for fresh complete medium containing 0.2 mg/ml dextran-10K labeled with Alexa Fluor 488, and cells were incubated for 30 min at 37° C. After incubation, cells were harvested and analyzed by flow cytometry to determine dextran uptake. (Panel B) The same experiment was performed using Hs27 cells. (Panel C) DU145 cells were treated with 10 μM tAS1411 or 10 μM tCRO or no oligonucleotide in complete DMEM medium at 37° C. for 48 h. […]
(§1) AS1411 causes a change in cancer cell morphology that is characterized by vacuolization, irregular nuclei, and swollen cells (Xu et al., 2001, J. Biol. Chem., 276:43221-30). […] To test this idea, DU145 cells were pre-treated for 24 h with tAS1411, then added FL-AS1411 and evaluated uptake after an additional 2 h using flow cytometry. […] This idea is not necessarily inconsistent with the time course data shown in FIG. 1A because the fluorescence signal may decrease over time for a number of reasons, including exocytosis of the ligand and fluorescence quenching due to protein binding or environmental factors (the fluorophore used for flow cytometry is particularly sensitive to acidic environments). […]

MCF10A = test: Stimulation of macropinocytosis (dextran uptake); assay type: cell-based, human; conditions: MCF-10A, 10 μM for 48 hr or 72 hr
Experimental: FIG. 10 are graphs showing the stimulation of macropinocytosis by GROs. Breast carcinoma cells (MDA-MB-231, MCF-7) or non-malignant breast epithelial cells (MCF10A) cells were plated 18 hr before treatment with 10 μM tAS1411 or 10 μM tCRO or water in complete DMEM medium at 37° C. for 48 hr or 72 hr. After treatment, cell medium was changed for fresh complete medium containing 0.2 mg/ml dextran-10K labeled with Alexa Fluor 488 and cells were incubated for 30 min at 37° C. Cells were then incubated on ice with 1 mg/ml PI in PBS, harvested, and analyzed by flow cytometry. Uptake was normalized to no pre-treatment controls and bars show the mean and SE of three independent experiments. […]
as §1

DU145 = test: Stimulation of macropinocytosis (dextran uptake); assay type: cell-based
Experimental: (Panel A) DU145 cells were treated with 10 μM tAS1411 or 10 μM tCRO or no oligonucleotide in complete DMEM medium at 37° C. for the time indicated. After treatment, cell medium was changed for fresh complete medium containing 0.2 mg/ml dextran-10K labeled with Alexa Fluor 488, and cells were incubated for 30 min at 37° C. After incubation, cells were harvested and analyzed by flow cytometry to determine dextran uptake. (Panel B) The same experiment was performed using Hs27 cells. (Panel C) DU145 cells were treated with 10 μM tAS1411 or 10 μM tCRO or no oligonucleotide in complete DMEM medium at 37° C. for 48 h. After treatment, cell medium was changed for fresh complete medium containing 0.2 mg/ml dextran-10K tagged with Alexa Fluor 488, and cells were incubated for 30 min at 37° C. Then, cells were washed with cold PBS, added PBS containing 5 μg/ml PI and incubated on ice for 5 min. After washing with cold PBS, cells were fixed and the distribution of macropinocytic marker was visualized by confocal microscopy. The nucleus was stained with DAPI (blue). Scale bars, 10 μm. All experiments have been repeated at least three times. Data are mean of three independent samples; bars, SE; *(p<0.05).
FIG. 6 are graphs showing that nucleolin regulates AS1411-induced stimulation of macropinocytosis. DU145 cells were untreated (no transfection) or transfected, without siRNA (mock), or with 30 nM of one of three different nucleolin siRNAs (NCL1, NCL2, NCL3) or a control siRNA (scramble). 48 h after transfection, cells were incubated with 10 μM tAS1411, 10 μM tCRO, or no oligonucleotide in complete DMEM medium at 37° C. for 24 h. (Panel A) After treatment, cell medium was changed for fresh complete medium containing 0.2 mg/ml dextran-10K labeled with Alexa Fluor 488 (green) and incubated for 30 min at 37° C. (Panel B) After treatment, some cells were washed, fresh complete medium containing 10 μM FL-AS1411 added and incubated for 2 h at 37° C. After incubation, cells were harvested and analyzed by flow cytometry. Mean fluorescence was normalized to “not transfected” control (Panel A) or to no pre-treatment control (Panel B). All experiments have been repeated at least three times. Data are the mean of three independent samples; bars, SE; *(p<0.05).
FIG. 11 is a graph showing a comparison between AS1411 and tAS1411 in the ability to stimulate macropinocytosis. DU145 cells were plated 18 hr before treatment with different concentrations (0, 5, 10, or 15 μM) of AS1411, tAS1411 or tCRO in complete DMEM medium at 37° C. for 48 h. After treatment, cell medium was changed for fresh complete medium containing 0.2 mg/ml dextran-10K labeled with Alexa Fluor 488, and cells were incubated for 30 min at 37° C. After incubation, cells were incubated on ice with […] PI in PBS, harvested, fixed and immediately analyzed by flow cytometry.
(§2) To analyze uptake of the oligodeoxynucleotides or dextran-10K (macropinocytic marker) by flow cytometry, 2×10^5 cells in fresh supplemented culture medium (2.5 ml) were plated into 6-well plates for 18 h. After complete adhesion, the cells were incubated with 5′-FAM tagged oligodeoxynucleotides or Alexa Fluor 488 tagged dextran-10K and incubated as indicated in the Description of the Drawings. Cells were washed once with ice-cold PBS, incubated with 1 μg/ml 7-amino-actinomycin D (7-AAD) for 5 min on ice or 1 μg/ml propidium iodide (PI), and washed twice with ice-cold PBS. Cells were then treated with 0.01% trypsin/0.5 mM EDTA (300 μl) for 3 min prior addition 3 ml supplemented culture medium. The cells were then centrifuged and resuspended in 0.5 ml of 1% paraformaldehyde for analysis by flow cytometry using a FACScalibur cytometer (BD Biosciences, Mountain View, Calif.).
AS1411 causes a change in cancer cell morphology that is characterized by vacuolization, irregular nuclei, and swollen cells (Xu et al., 2001, J. Biol. Chem., 276:43221-30). […]

MCF7 = test: Stimulation of macropinocytosis (dextran uptake); assay type: cell-based; conditions: MCF-7, 10 μM for 48 hr or 72 hr
Experimental: (§3) FIG. 10 are graphs showing the stimulation of macropinocytosis by GROs. Breast carcinoma cells (MDA-MB-231, MCF-7) or non-malignant breast epithelial cells (MCF10A) cells were plated 18 hr before treatment with 10 μM tAS1411 or 10 μM tCRO or water in complete DMEM medium at 37° C. for 48 hr or 72 hr. After treatment, cell medium was changed for fresh complete medium containing 0.2 mg/ml dextran-10K labeled with Alexa Fluor 488 and cells were incubated for 30 min at 37° C. Cells were then incubated on ice with 1 mg/ml PI in PBS, harvested, and analyzed by flow cytometry. Uptake was normalized to no pre-treatment controls and bars show the mean and SE of three independent experiments.
as §2
(§4) AS1411 causes a change in cancer cell morphology that is characterized by vacuolization, irregular nuclei, and swollen cells (Xu et al., 2001, J. Biol. Chem., 276:43221-30). Therefore, the effect of AS1411 on macropinocytosis in DU145 cells and non-malignant Hs27 cells was investigated. […] As in all of the flow cytometry experiments, cells were gated to exclude permeable cells, discounting the possibility that this increase was due to cell death. […] One implication of the finding that AS1411 causes hyperstimulation of macropinocytosis is that treatment of AS1411 might actually promote its own internalization by cancer cells. To test this idea, DU145 cells were pre-treated for 24 h with tAS1411, then added FL-AS1411 and evaluated uptake after an additional 2 h using flow cytometry. […] This idea is not necessarily inconsistent with the time course data shown in FIG. 1A because the fluorescence signal may decrease over time for a number of reasons, including exocytosis of the ligand and fluorescence quenching due to protein binding or environmental factors (the fluorophore used for flow cytometry is particularly sensitive to acidic environments). […]

MDA-MB-231 = test: Stimulation of macropinocytosis (dextran uptake); assay type: cell-based; conditions: MDA-MB-231, 10 μM for 48 hr or 72 hr
Experimental: as §3, §2, §4

DU145 cells = test: FL-AS1411 uptake after tAS1411 pre-treatment (flow cytometry); assay type: cell-based; conditions: 10 μM pre-treatment for 24 h, then 10 μM FL-AS1411 2 h
Experimental: FIG. 6 are graphs showing that nucleolin regulates AS1411-induced stimulation of macropinocytosis. DU145 cells were untreated (no transfection) or transfected, without siRNA (mock), or with 30 nM of one of three different nucleolin siRNAs (NCL1, NCL2, NCL3) or a control siRNA (scramble). 48 h after transfection, cells were incubated with 10 μM tAS1411, 10 μM tCRO, or no oligonucleotide in complete DMEM medium at 37° C. for 24 h. (Panel A) After treatment, cell medium was changed for fresh complete medium containing 0.2 mg/ml dextran-10K labeled with Alexa Fluor 488 (green) and incubated for 30 min at 37° C. […] After incubation, cells were harvested and analyzed by flow cytometry. Mean fluorescence was normalized to “not transfected” control (Panel A) or to no pre-treatment control (Panel B). […]
FIG. 12 are graphs showing the effectiveness of pre-treatment of cells with a GRO. […] After incubation, cells were incubated on ice with 1 mg/ml PI in PBS, harvested, fixed and immediately analyzed by flow cytometry. […]
AS1411 causes a change in cancer cell morphology that is characterized by vacuolization, irregular nuclei, and swollen cells (Xu et al., 2001, J. Biol. Chem., 276:43221-30). […] To test this idea, DU145 cells were pre-treated for 24 h with tAS1411, then added FL-AS1411 and evaluated uptake after an additional 2 h using flow cytometry. […]

Hs27 cells = test: as above; assay type: cell-based, human; conditions: 10 μM pre-treatment for 24 h, then 10 μM FL-AS1411 2 h
Experimental: FIG. 12 are graphs showing the effectiveness of pre-treatment of cells with a GRO. DU145 or Hs27 cells were treated with or without 10 μM tAS1411 in complete DMEM medium at 37° C. for 24 h. After treatment, cells were washed, fresh complete medium containing 10 μM FL-AS1411 was added, and cells were incubated for a further 2 h at 37° C. After incubation, cells were incubated on ice with 1 mg/ml PI in PBS, harvested, fixed and immediately analyzed by flow cytometry.
To analyze uptake of the oligodeoxynucleotides or dextran-10K (macropinocytic marker) by flow cytometry, 2×10^5 cells in fresh supplemented culture medium (2.5 ml) were plated into 6-well plates for 18 h. […]
AS1411 causes a change in cancer cell morphology that is characterized by vacuolization, irregular nuclei, and swollen cells (Xu et al., 2001, J. Biol. Chem., 276:43221-30). […] To test this idea, DU145 cells were pre-treated for 24 h with tAS1411, then added FL-AS1411 and evaluated uptake after an additional 2 h using flow cytometry. […] This idea is not necessarily inconsistent with the time course data shown in FIG. 1A because the fluorescence signal may decrease over time for a number of reasons, including exocytosis of the ligand and fluorescence quenching due to protein binding or environmental factors (the fluorophore used for flow cytometry is particularly sensitive to acidic environments).

**Q.** For “5′-d(TTTGGTGGTGGTGGTTGTGGTGGTGGTGG) [tAS1411]”, which “uptake of the macropinocytic marker, dextran, after treatment” value (Hs27) is on record?
**A.** Its value is “no increase”.

**Q.** What about the stimulation of macropinocytosis (MCF10A) of the same substance?
**A.** The stimulation of macropinocytosis was “much reduced effect”.

**Q.** And the “uptake of the macropinocytic marker, dextran, after treatment” value (DU145; 10 μM for 24, 48, or 72 h, flow cytometry)?
**A.** The value was “significant increment in the uptake of the macropinocytic marker, dextran”.

**Q.** And the “dextran uptake by confocal microscopy” value (DU145; 10 μM for 48 h, versus untreated or CRO-treated cells)?
**A.** Its value is “higher dextran uptake confined in large vesicle”.

**Q.** What about the stimulation of macropinocytosis (MCF7) of the same substance?
**A.** Its stimulation of macropinocytosis is “induce hyperstimulation of macropinocytosis”.

**Q.** What about the stimulation of macropinocytosis (MDA-MB-231) of the same substance?
**A.** Its stimulation of macropinocytosis is “induce hyperstimulation of macropinocytosis”.

**Q.** What about the “uptake of FL-AS1411 after pre-treatment” value (DU145 cells) of the same substance?
**A.** Its value is “increase in the uptake of FL-AS1411”.

**Q.** And the “uptake of FL-AS1411 after pre-treatment” value (Hs27 cells)?
**A.** Its value is “no comparable increase”.
